Measured values published in patent US20250026741A1, “INHIBITORS OF THE ONCOGENIC SHP2 PHOSPHATASE AND USES THEREOF” (Sanford Burnham Prebys Medical Discovery Institute, priority 2021, published 2025).

Legend:
SHP2-E76K = SHP2-E76K (Homo sapiens (Human), UniProt Q06124, E76K); assay: Time-dependent inhibition (preincubation) assay; assay type: biochemical; conditions: preincubation 1, 5, 10, 20, or 60 min with SHP2-E76K
Description: PTPs contain a highly nucleophilic cysteine that is essential for catalytic activity, but is susceptible to oxidation and covalent modifications which abrogate its nucleophilic function and phosphatase activity. Because the methylenebenzothiophenone moiety of our inhibitors could potentially act as a Michael acceptor and thus covalently bind to the catalytic cysteine, we tested whether the observed inhibition of SHP2 was dependent on the preincubation time of inhibitor and enzyme. An irreversible covalent inhibitor may show time-dependent inhibition, with increased potency at longer incubation times. Conversely, the potency of a non-covalent inhibitor is expected to be insensitive to the time it is incubated with the enzyme. To test for time-dependent inhibition, #01 (#01) at 10 different concentrations was preincubated with SHP2-E76K for 1, 5, 10, 20, or 60 min, before the DiFMUP substrate was added to the reaction mixture and initial rates were recorded (FIG. 2C).

SHP2cat = SHP2cat (Homo sapiens (Human), UniProt Q06124); assay: Jump dilution inhibition assay; assay type: biochemical; conditions: 10× preincubation 10 min, 10× jump-dilution
Description: Finally, we performed a jump-dilution experiment to test for irreversible inhibition of SHP2. #01 was preincubated for 10 min with SHP2cat at 10× inhibitor and protein concentrations, compared to a regular dose-response experiment, followed by a 10×jump-dilution, incubation for an additional 10 min, and addition of the DiFMUP substrate.
#01 was tested for reversibility of inhibition in a jump-dilution experiment using SHP2cat. A regular dose-response experiment (no jump-dilution) was performed in parallel. Working solutions of #01 in DMSO included 10, 3, 1, 0.3, 0.1, 0.03, 0.01, 0 mM for the jump-dilution experiment, and 1, 0.3, 0.1, 0.03, 0.01, 0.003, 0.001, 0 mM for the regular dose-response experiment. […] The enzyme reaction was started by the addition of 5 μL of DiFMUP working solution (100 μM in 50 mM Bis-Tris pH 6.0, 50 mMNaCl, 0.5 mM EDTA, and 0.01% Tween® 20), and fluorescence intensity was measured in kinetic mode (every minute for 10 min) using a Tecan Spark® Multimode Microplate Reader as described above. […] The initial rates were determined from the linear progression curves of the SHP2cat reaction. […] IC50 values were calculated from the corrected initial rates by nonlinear regression using the program GraphPad Prism (GraphPad Software, Inc., San Diego, CA) version 9.

[1] = tested on: patient-derived AML cells; assay: Viability of AML patient-derived cells; assay type: cell-based, human; conditions: 10 μM, two patient samples, 2 d, 4 d, or 6 d
Source text: Patient-derived AML cells were obtained from Carol Burian and Dr. James Mason (Scripps MD Anderson, La Jolla, CA) under approved IRB protocol 13-6180. Peripheral blood mononuclear cells (PBMCs) were isolated by traditional Ficoll-Paque™ PLUS (17-1440-02, GE Healthcare) centrifugation according to the manufacturer's instructions, and red blood cells were lysed using RBC Lysis Buffer (Alfa Aesar, cat. #J62990). Final PBMCs were resuspended in Bambanker serum-free freezing medium (Wako Pure Chemical Industries, Ltd.) and stored frozen before cell viability was assessed as described below.
Viability of AML, esophageal carcinoma, and TF-1 cells was assessed using the ATP-depletion assay CellTiter-Glo® (Promega). Cells were harvested at 1×10^6/mL to 2×10^6 cells/mL with cell numbers determined by trypan blue using the Countess Cell counter (Thermo Scientific) and resuspended in culture media. 3K cells (in […]) were seeded in a 384-well format white, clear bottom microplate (#781098, Greiner) spotted with test compound or vehicle control (DMSO) using an Echo 555 Liquid Handler. […] Luminescence was read on a Tecan Spark® Multimode Microplate Reader and data analyzed using Graph Pad Prism software.

Chain of SHP2-E76K (Q06124 whole entry E76K): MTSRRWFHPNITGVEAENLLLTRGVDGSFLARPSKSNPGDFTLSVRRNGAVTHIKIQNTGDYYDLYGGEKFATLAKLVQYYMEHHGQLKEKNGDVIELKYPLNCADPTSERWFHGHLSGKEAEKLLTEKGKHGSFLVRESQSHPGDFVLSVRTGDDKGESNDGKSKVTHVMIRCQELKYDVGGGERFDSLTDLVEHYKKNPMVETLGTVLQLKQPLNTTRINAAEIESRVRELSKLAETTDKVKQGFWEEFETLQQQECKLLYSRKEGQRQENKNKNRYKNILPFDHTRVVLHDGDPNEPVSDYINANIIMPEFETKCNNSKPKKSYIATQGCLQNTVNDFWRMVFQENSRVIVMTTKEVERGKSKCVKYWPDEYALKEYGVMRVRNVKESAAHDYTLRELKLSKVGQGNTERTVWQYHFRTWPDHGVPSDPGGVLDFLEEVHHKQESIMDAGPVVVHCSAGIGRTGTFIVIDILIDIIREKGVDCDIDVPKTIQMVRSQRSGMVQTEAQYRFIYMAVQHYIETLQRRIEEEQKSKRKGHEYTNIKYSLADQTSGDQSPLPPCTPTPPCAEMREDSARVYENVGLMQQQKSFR
Chain of SHP2cat (Q06124 248-527): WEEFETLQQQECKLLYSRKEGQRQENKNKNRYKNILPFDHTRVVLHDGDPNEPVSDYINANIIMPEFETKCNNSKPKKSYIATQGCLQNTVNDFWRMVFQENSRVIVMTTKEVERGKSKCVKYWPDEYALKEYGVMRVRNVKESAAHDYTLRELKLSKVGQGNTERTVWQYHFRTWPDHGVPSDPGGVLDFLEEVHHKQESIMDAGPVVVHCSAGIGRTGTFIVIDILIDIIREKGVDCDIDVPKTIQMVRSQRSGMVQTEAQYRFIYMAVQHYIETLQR

SMILES | time dependence of inhibition (SHP2-E76K) | reversibility: jump-dilution vs regular dose-response IC50 curves (SHP2cat) | effect on growth of patient-derived AML samples [1]
Nc1ccc(NC(=O)c2cc(-c3ccc(/C=C4\Sc5ccccc5C4=O)o3)ccc2O)cc1 [#01, (Z)—N-(4-Aminophenyl)-2-hydroxy-5-(5-((3-oxobenzo[b]thiophen-2(3H)-ylidene)methyl)furan-2-yl)benzamide] | not time-dependent | IC50 curves were practically identical | –
O=C(Nc1ccccc1)c1cc(-c2ccc(/C=C3\Sc4ccccc4C3=O)o2)ccc1O [#02, (Z)-2-hydroxy-5-(5-((3-oxobenzo[b]thiophen-2(3H)-ylidene)methyl)furan-2-yl)-N-phenylbenzamide] | – | – | inhibited the growth of both AML patient samples
